From patent US5179206A, “Substituted 3-aminosydnone imines” (Cassella Aktiengellschaft, priority 1989, dated 1993)
Structures can show the parent of a compound that is named as a salt. Where two headings read alike, the source gives them in different places.

Tested on: pulmonary artery of the guinea pig (spiral strips)
Assay: Relaxant effect on potassium-depolarized, CaCl2-contracted spiral strips of the pulmonary artery of the guinea pig (modified method of Godfraind and Kaba and of Schuman et al)
Conditions: depolarized using 40 mmol/l of potassium, contraction induced by 0.5 mmol/l of CaCl2, average value of 4 to 6 vessel strips, read-out: IC50: concentration of the test substance which inhibits the contraction by 50%
Procedure: The pharmacological action of the compounds of the formula I was determined by a modified method of Godfraind and Kaba (Arch.Int. Pharmacodyn. Ther. 196, (Suppl.) 35 to 49, 1972) and of Schuman et al (Naunyn-Schmiedeberg's Arch. Pharmacol. 289, 409 to 418, 1975). In this connection, spiral strips of the pulmonary artery of the guinea pig are depolarized using 40 mmol/l of potassium after equilibration in calcium-free Tyrode solution. An addition of 0.5 mmol/l of CaCl2 then induces a contraction. The relaxant effect of the test substance is determined by cumulative addition in semilogarithmic graduated concentrations. The concentration of the test substance which inhibits the contraction by 50% (=IC50, mol/l) is determined from the concentration-effect curve (abscissa: -log mol/l of test substance, ordinate: % inhibition of the maximum contraction, average value of 4 to 6 vessel strips).

| SMILES | IC50 | IC50 (Cavia porcellus) |
| --- | --- | --- |
| CCOC(=O)[N-]c1cn(N2CCOCC2)n[o+]1 [Molsidomine, N-ethoxycarbonyl-3-morpholino-sydnone imine, reference compound] | > 300000 nM |  |
| CC1CCCC(C)N1[n+]1[n-]oc(=N)c1CCc1ccccc1 (stereo not shown) [Example 8, 3-(2,6-Dimethylpiperidino)-4-(2-phenylethyl)sydnone imine hydrochloride] |  | 2000 nM |
| CC1CCCC(C)N1[n+]1[n-]oc(=N)c1Cc1ccccc1 (stereo not shown) [Example 6, 4-Benzyl-3-(2,6-dimethylpiperidino)sydnone imine hydrochloride] |  | 2300 nM |
| CCCCCCc1c(=N)o[n-][n+]1N1C(C)CCCC1C (stereo not shown) [Example 3, 3-(2,6-Dimethylpiperidino)-4-hexylsydnone imine hydrochloride] |  | 2400 nM |
